Type in all cases: cell-based
Assay [1] deals with HIV-1, RT mutations: T215Y and 2 TAMs and H208 wt. Briefly: PhenoSense resistance test vector assay, clinical isolates with T215Y and 2 TAMs and H208 wt. To be noted: share of samples designated hypersusceptible. As for the experimental part:
(§1) In preferred embodiments, the phenotypic analysis of NNRTI hypersusceptibility is performed using PHENOSENSE™ (ViroLogic Inc., South San Francisco, Calif.). See Petropoulos et al., 2000, Antimicrob. Agents Chemother. 44:920-928; U.S. Pat. Nos. 5,837,464 and 6,242,187. PHENOSENSE™ is a phenotypic assay that achieves the benefits of phenotypic testing and overcomes the drawbacks of previous assays. Because the assay has been automated, PHENOSENSE™ provides high throughput methods under controlled conditions for determining NNRTI resistance, susceptibility, or hypersusceptibility of a large number of individual viral isolates.
(§2) The assay can be performed by first co-transfecting host cells with RTV DNA and a plasmid that expresses the envelope proteins of another retrovirus, for example, amphotropic murine leukemia virus (MLV). Following transfection, viral particles can be harvested from the cell culture and used to infect fresh target cells in the presence of varying amounts of anti-viral drug(s). The completion of a single round of viral replication in the fresh target cells can be detected by the means for detecting replication contained in the vector. In a preferred embodiment, the completion of a single round of viral replication results in the production of luciferase. By monitoring the amount of, e.g., luciferase activity in the presence of the varying amounts of antiviral drug(s), a resistance curve can be constructed by plotting luciferase activity versus drug concentration. The susceptibility of an HIV, or population of HIV, can be determined by measuring the concentration of antiviral drug at which the luciferase activity detected is half-maximal. This number, the IC50, provides a standard and convenient measure of drug resistance.
(§3) Patient-derived segment(s) corresponding to the HIV protease and reverse transcriptase coding regions were amplified by the reverse transcription-polymerase chain reaction method (RT-PCR) using viral RNA isolated from viral particles present in the plasma or serum of HIV-infected individuals as follows. […]

In assay [2] the test system is HIV-1 NL4-3 SDM, K65R in reverse transcriptase. In words: NNRTI susceptibility of site-directed mutant (SDM) bearing only K65R in NL4-3 background. To be noted: mean+/-SD of 18 replicates, p<0.00001 versus reference. The procedure: as §1
as §2, with “By monitoring the amount of, e.g., luciferase activity in the presence of the varying amounts of antiviral drug(s), a resistance curve can be constructed by plotting luciferase activity versus drug concentration.” left out, “This number, the IC50, provides a standard and convenient measure of drug resistance.” left out
(§4) Resistance tests were carried out with resistance test vectors using two host cell types. […] The resistance test vector viral particles were then used to infect a second host cell (the target host cell) in which the expression of the indicator gene is measured.
(§5) The amount of luciferase activity detected in infected cells is used as a direct measure of “infectivity,” i.e., the ability of the virus to complete a single round of replication. Thus, drug resistance or sensitivity can be determined by plotting the amount of luciferase activity produced by patient derived viruses in the presence of varying concentrations of the antiviral drug. […]

The test system of assay [3] is HIV-1, RT mutations: 2 NAMs. Briefly: PhenoSense resistance test vector assay, clinical isolates with 2 NAMs. The following applies: share of samples designated hypersusceptible. As for the experimental part: as §1, §2, §3
The subject of assay [4] is HIV-1, RT mutations: K70R and 2 TAMs. In words: PhenoSense resistance test vector assay, clinical isolates with K70R and 2 TAMs. To be noted: share of samples designated hypersusceptible. The procedure:
as §1, §2, §3

Assay [5] deals with HIV-1, RT mutations: 184V. Briefly: PhenoSense resistance test vector assay, clinical isolates with 184V. The following applies: share of samples designated hypersusceptible. As for the experimental part:
as §1, §2, §3

Assay [6] deals with HIV-1 NL4-3 SDM, M184V in reverse transcriptase. Briefly: NNRTI susceptibility of site-directed mutant (SDM) bearing only M184V in NL4-3 background. The following applies: mean+/-SD of 17 replicates, p<0.00001 versus reference. The procedure: as §1
as §2, with “By monitoring the amount of, e.g., luciferase activity in the presence of the varying amounts of antiviral drug(s), a resistance curve can be constructed by plotting luciferase activity versus drug concentration.” left out, “This number, the IC50, provides a standard and convenient measure of drug resistance.” left out
as §4, §5

In the next assay the test system is HIV-1, RT mutations: 69X. In words: PhenoSense resistance test vector assay, clinical isolates with 69X. To be noted: share of samples designated hypersusceptible. The procedure: as §1, §2, §3
The test system of assay [7] is HIV-1 NL4-3 SDM, L74V in reverse transcriptase. In words: NNRTI susceptibility of site-directed mutant (SDM) containing L74V in NL4-3 background. To be noted: relative to NL4-3. The procedure:
as §1
as §2, with “By monitoring the amount of, e.g., luciferase activity in the presence of the varying amounts of antiviral drug(s), a resistance curve can be constructed by plotting luciferase activity versus drug concentration.” left out, “This number, the IC50, provides a standard and convenient measure of drug resistance.” left out
as §4, §5

The test system of assay [8] is HIV-1, RT mutations: T215Y and 2 TAMs and V118 wt. In words: PhenoSense resistance test vector assay, clinical isolates with T215Y and 2 TAMs and V118 wt. The following applies: share of samples designated hypersusceptible. As for the experimental part: as §1, §2, §3

The values below come from patent US10202658B2, “Methods for determining hypersusceptibility of HIV-1 to non-nucleoside reverse transcriptase inhibitors” (Monogram Biosciences, Inc., priority 2005, dated 2019).

As to `CC(C)Nc1cccnc1N1CCN(C(=O)c2cc3cc(NS(C)(=O)=O)ccc3[nH]2)CC1` [DLV, delavirdine], the “% IC50 0.4 fold < WT” value is given as 68.7% in [1]; 30.1% in [3]; 15.7% in assay [4]; 12.3% in assay [5]; 13.2% in the assay on HIV-1, RT mutations: 69X; 83.9% in assay [8]. Further, the “FC (fold change in IC50)” value was 0.54+/−0.03 in assay [2], 0.65+/−0.05 in assay [6] and 0.68+/−0.06 in [7].
Take `O=C1Nc2ccc(Cl)cc2[C@@](C#CC2CC2)(C(F)(F)F)O1` [EFV, efavirenz]: the “% IC50 0.4 fold < WT” value in assay [1] came to 55.1%; in [3], 39.8%; in [4], 31.0%; in assay [5], 16.9%; with HIV-1, RT mutations: 69X, 19.8%; in assay [8], 78.1%. Moreover, the figures for the “FC (fold change in IC50)” value in assay [2], in assay [6] and in [7] were 0.56+/−0.02, 0.65+/−0.03 and 0.67+/−0.02, respectively.
Turning to `Cc1ccnc2c1NC(=O)c1cccnc1N2C1CC1` [NVP, nevirapine], the “% IC50 0.4 fold < WT” value in assay [1] worked out at 34.8%; in assay [3], 39.8%; in assay [4] it was 36.9%; in [5], 16.3%; in the assay on HIV-1, RT mutations: 69X, 20.8%; in assay [8], 37.5%. Moreover, the figures for the “FC (fold change in IC50)” value in assay [2], in [6] and in [7] were 0.53+/−0.05, 0.67+/−0.05 and 0.59+/−0.06, respectively.
